According to ChEMBL document CHEMBL2346612, “Pregna-5,17(20)-dien-21-oyl amides affecting sterol and triglyceride biosynthesis in Hep G2 cells” (Bioorg Med Chem Lett, 2013):
Active and inactive are the calls of the source. The calls are words filed in the database; no cut-off is given here.

How the values were obtained:
HepG2 [1] = assay: Effect on triglyceride biosynthesis in human HepG2 cells at 30 uM; type: functional, cell-based
HepG2 [2] = assay: Effect on sterol biosynthesis in human HepG2 cells at 30 uM; type: functional, cell-based
[3] = Cytotoxicity against human HepG2 cells assessed as cell viability after 48 hrs by MTT assay; type: cell-based; design: concentration or dose not given beside the values; conditions: read-out: Activity
HepG2 [4] = assay: Reduction in cholesterol biosynthesis in human HepG2 cells incubated at 2 uM for 14 hrs followed by sodium [14C]-acetate addition measured after 4 hrs; type: functional, cell-based
HepG2 [5] = assay: Stimulation of triglyceride biosynthesis in human HepG2 cells incubated at 2 uM for 14 hrs followed by sodium [14C]-acetate addition measured after 4 hrs; type: functional, cell-based
HepG2 [6] = assay: Cytotoxicity against human HepG2 cells assessed as cell viability up to 2 uM after 48 hrs by MTT assay; type: cell-based; conditions: hepg2, 48 h
HepG2 [7] = assay: Reduction in cholesterol biosynthesis in human HepG2 cells incubated at 5 uM for 14 hrs followed by sodium [14C]-acetate addition measured after 4 hrs; type: functional, cell-based
HepG2 [8] = assay: Stimulation of triglyceride biosynthesis in human HepG2 cells incubated at 5 uM for 14 hrs followed by sodium [14C]-acetate addition measured after 4 hrs; type: functional, cell-based

## C[C@]12CC[C@H](O)CC1=CC[C@@H]1[C@@H]2CC[C@]2(C)/C(=C/C(=O)NC(CO)(CO)CO)CC[C@@H]12
HepG2 [1]
  Activity: inactive
HepG2 [2]
  Activity: inactive
[3]
  viability at 48 h: > 70%

## C[C@H](CCCC(C)(C)O)[C@H]1CC[C@H]2[C@@H]3CC=C4C[C@@H](O)CC[C@]4(C)[C@H]3CC[C@]12C
HepG2 [1]
  Activity: inactive
HepG2 [2]
  Activity: inactive
[3]
  viability at 48 h: > 70%
HepG2 [4]
  Activity: Active
HepG2 [5]
  Activity: Active
HepG2 [6]
  Activity: Non-toxic

## CC(CO)(CO)NC(=O)/C=C1\CC[C@H]2[C@@H]3CC=C4C[C@@H](O)CC[C@]4(C)[C@H]3CC[C@]12C
HepG2 [1]
  Activity: inactive
HepG2 [2]
  Activity: inactive
[3]
  viability at 48 h: > 70%

## C[C@]12CC[C@H](O)CC1=CC[C@@H]1[C@@H]2CC[C@]2(C)/C(=C\C(=O)NC(CO)(CO)CO)CC[C@@H]12
HepG2 [1]
  Activity: inactive
HepG2 [2]
  Activity: inactive
[3]
  viability at 48 h: > 70%
HepG2 [7]
  Activity: inactive
HepG2 [8]
  Activity: inactive

## CC(C)CCNC(=O)/C=C1\CC[C@H]2[C@@H]3CC=C4C[C@@H](O)CC[C@]4(C)[C@H]3CC[C@]12C
HepG2 [1]
  Activity: inactive
HepG2 [2]
  Activity: inactive
[3]
  viability at 48 h: > 70%
HepG2 [7]
  Activity: Active
HepG2 [8]
  Activity: Active

## CC(CO)(CO)NC(=O)/C=C1/CC[C@H]2[C@@H]3CC=C4C[C@@H](O)CC[C@]4(C)[C@H]3CC[C@]12C
HepG2 [1]
  Activity: inactive
HepG2 [2]
  Activity: inactive
[3]
  viability at 48 h: > 70%
HepG2 [7]
  Activity: inactive
HepG2 [8]
  Activity: inactive

## CN(C)C(=O)CNC(=O)/C=C1\CC[C@H]2[C@@H]3CC=C4C[C@@H](O)CC[C@]4(C)[C@H]3CC[C@]12C
HepG2 [1]
  Activity: inactive
HepG2 [2]
  Activity: inactive
[3]
  viability at 48 h: > 70%
HepG2 [7]
  Activity: Active
HepG2 [8]
  Activity: Active

## C[C@]12CC[C@H](O)CC1=CC[C@@H]1[C@@H]2CC[C@]2(C)/C(=C/C(=O)NCCO)CC[C@@H]12
HepG2 [1]
  Activity: inactive
HepG2 [2]
  Activity: inactive
[3]
  viability at 48 h: > 70%
HepG2 [7]
  Activity: Active
HepG2 [8]
  Activity: Active

## CC(C)(CO)NC(=O)/C=C1/CC[C@H]2[C@@H]3CC=C4C[C@@H](O)CC[C@]4(C)[C@H]3CC[C@]12C
HepG2 [1]
  Activity: inactive
HepG2 [2]
  Activity: inactive
[3]
  viability at 48 h: > 70%
HepG2 [7]
  Activity: inactive
HepG2 [8]
  Activity: inactive

## CC(C)(CO)NC(=O)/C=C1\CC[C@H]2[C@@H]3CC=C4C[C@@H](O)CC[C@]4(C)[C@H]3CC[C@]12C
HepG2 [1]
  Activity: inactive
HepG2 [2]
  Activity: inactive
[3]
  viability at 48 h: > 70%

## C[C@]12CC[C@H](O)CC1=CC[C@@H]1[C@@H]2CC[C@]2(C)/C(=C\C(=O)NCCO)CC[C@@H]12
HepG2 [1]
  Activity: inactive
HepG2 [2]
  Activity: inactive
[3]
  viability at 48 h: > 70%
HepG2 [7]
  Activity: inactive
HepG2 [8]
  Activity: inactive

## CC(C)CCNC(=O)/C=C1/CC[C@H]2[C@@H]3CC=C4C[C@@H](O)CC[C@]4(C)[C@H]3CC[C@]12C
HepG2 [1]
  Activity: inactive
HepG2 [2]
  Activity: inactive
[3]
  viability at 48 h: > 70%
HepG2 [7]
  Activity: inactive
HepG2 [8]
  Activity: inactive

## COC(=O)CNC(=O)/C=C1\CC[C@H]2[C@@H]3CC=C4C[C@@H](O)CC[C@]4(C)[C@H]3CC[C@]12C
HepG2 [1]
  Activity: inactive
HepG2 [2]
  Activity: inactive
[3]
  viability at 48 h: > 70%
HepG2 [7]
  Activity: inactive
HepG2 [8]
  Activity: Active
